US20250243227A1, “IDURONIDASE STABILIZERS AND USES THEREOF” (Academia Sinica, priority 2022, published 2025)
One block for each molecule: values may come before it.

What was measured:
[1] = target: recombinant human α-IDUA (rh-α-IDUA, Aldurazyme®) (Homo sapiens (Human), UniProt P35475); assay: IDUA inhibition assay (fluorogenic substrate 4MU-IdoA); assay type: biochemical; conditions: for IC50: apparent IC50 against rh-α-IDUA, 4-MU-IdoA substrate, pH 3.5
Protocol: Compounds were mixed with recombinant human α-IDUA (rh-α-IDUA, Aldurazyme®, 1.2 nM as the final concentration) and the fluorogenic substrate, […] (4MU-IdoA; Cayman), at a final concentration of 100 μM in pH 3.5 buffer (50 mM NaOAc and 150 mM NaCl), then incubated in a 384-well microplate at 37° C. for 30 min. Stop solution (500 mM Na2CO3, pH 10.8) was added and fluorescence was read on a CLARIOstar® microplate reader (BMG LABTECH) at 355 nm excitation and 460 nm emission. Raw fluorescence counts were background subtracted, as defined by counts from substrate solution only. Inhibitory screening was performed and the active compounds were selected and further tested at lower concentration to determine their IC50 values and Ki values.
The compounds of Example 1 were evaluated on their inhibitory potential against rh-α-IDUA, and their apparent IC50 values were determined by using the fluorogenic substrates 4-methylumbelliferyl-α-iduronide (4-MU-IdoA) and results are shown in Table 1.

[2] = test system: heparan sulfate (HS) in GM02846 fibroblasts; assay: Cell-based HS analysis (LC-MS/MS of HS disaccharides) in GM02846 fibroblasts; set-up: species or system human; conditions: combination with rh-α-IDUA
Excerpt: (§1) FIG. 2. The cell-based rh-α-IDUA stabilization study of 12/rh-α-IDUA in GM02846 fibroblasts. (A) IDUA activity, and (B) the reduction of HS; Each bar represents the mean±SD of three determinations. *P<0.05; **P<0.01; ***P<0.001 compared to rh-α-IDUA alone, as determined by one-way ANOVA with Dunnett post-hoc analysis.
(§2) Generally, accumulation of GAGs could be observed in MPS patients due to the dysfunction of any lysosomal enzymes involved in the degradation of GAGs including IDUA associated with MPSI, which means the enhanced efficacy of protein drugs by the co-treatment with protein stabilizers could be evaluated more directly by the improved reduction of GAGs than the increased activity of MPS-related lysosomal enzymes. As a result, a robust method for quantitative detection of HS, one of the types of GAGs excessively stored in MPS I patients, was established by us for the evaluation of potential therapeutic effect of compound 12 in MPSI.
(§3) HS of the in situ treated fibroblasts were extracted and chemically cleaved to generate HS disaccharides as the released biomarker, which could be quantitatively measured via LC-MS/MS with a synthesized novel disaccharide by us as the internal standard. With this established method for cell-based HS analysis, the qualified CIdoA analogue 12 was further evaluated.

[3] = target: T1, rh-α-IDUA in GM01391 fibroblasts (Homo sapiens (Human), UniProt P35475); assay: Cell-based rh-α-IDUA stabilization: intracellular IDUA activity in GM01391 fibroblasts; conditions: for enhancement of IDUA activity versus rh-α-IDUA alone / change of IDUA activity on co-treatment versus rh-α-IDUA alone: rh-α-IDUA 0.1 nM + compound 100 μM (100 aM/100 M [sic] in the source)
Protocol: (§4) FIG. 1. The cell-based rh-α-IDUA stabilization study of the compounds of Example 1/rh-α-IDUA in GM01391 fibroblasts. (A) Preliminary cell-based screening of compounds of Example 1 by the co-treatment of rh-α-IDUA (0.1 nM) with 12 or 27b ([…]); (B) A dose-dependent experiment for 12, 27a, or 27b with 1 nM of rh-α-IDUA; (C) Co-treatment of 12 and rh-α-IDUA (1 or 0.1 nM) on IDUA activity; and (D) 12/rh-α-IDUA co-treatment on HS reduction in cells. Each bar represents the mean±SD of three determinations. *P<0.05; **P<0.01; ***P<0.001 compared to rh-α-IDUA alone, as determined by one-way ANOVA with Dunnett post-hoc analysis.
To this purpose, GM01391 fibroblasts were treated with a combination of rh-α-IDUA (0.1 nM) and compounds 12, and 27a-c ([…]); or with rh-α-IDUA for 1 day, followed by a 1-day wash-out. To measure the intracellular IDUA activity, the corresponding cells were harvested and lysed before the incubation with the fluorogenic substrate. Results are illustrated in FIG. 1.

[4] = target: rh-α-IDUA in GM02846 fibroblasts (Homo sapiens (Human), UniProt P35475); assay: Cell-based rh-α-IDUA stabilization: IDUA activity in GM02846 fibroblasts; conditions: co-treatment with rh-α-IDUA
Excerpt: as §1, §3

[5] = test system: heparan sulfate (HS) in GM01391 fibroblasts; assay: Cell-based HS analysis (LC-MS/MS of HS disaccharides) in GM01391 fibroblasts; set-up: species or system human; conditions: co-treatment with rh-α-IDUA
Protocol: as §4
as §2, with “MPSI. […]” for “MPSI.”

[6] = target: T1, rh-α-IDUA in GM01391 fibroblasts; assay: Cell-based rh-α-IDUA stabilization: intracellular IDUA activity in GM01391 fibroblasts; conditions: co-treatment with rh-α-IDUA; 1-day treatment followed by 8-day wash-out; data not shown
[7] = rh-α-IDUA 1 nM + compound 500 μM

T1 sequence (P35475 26-653): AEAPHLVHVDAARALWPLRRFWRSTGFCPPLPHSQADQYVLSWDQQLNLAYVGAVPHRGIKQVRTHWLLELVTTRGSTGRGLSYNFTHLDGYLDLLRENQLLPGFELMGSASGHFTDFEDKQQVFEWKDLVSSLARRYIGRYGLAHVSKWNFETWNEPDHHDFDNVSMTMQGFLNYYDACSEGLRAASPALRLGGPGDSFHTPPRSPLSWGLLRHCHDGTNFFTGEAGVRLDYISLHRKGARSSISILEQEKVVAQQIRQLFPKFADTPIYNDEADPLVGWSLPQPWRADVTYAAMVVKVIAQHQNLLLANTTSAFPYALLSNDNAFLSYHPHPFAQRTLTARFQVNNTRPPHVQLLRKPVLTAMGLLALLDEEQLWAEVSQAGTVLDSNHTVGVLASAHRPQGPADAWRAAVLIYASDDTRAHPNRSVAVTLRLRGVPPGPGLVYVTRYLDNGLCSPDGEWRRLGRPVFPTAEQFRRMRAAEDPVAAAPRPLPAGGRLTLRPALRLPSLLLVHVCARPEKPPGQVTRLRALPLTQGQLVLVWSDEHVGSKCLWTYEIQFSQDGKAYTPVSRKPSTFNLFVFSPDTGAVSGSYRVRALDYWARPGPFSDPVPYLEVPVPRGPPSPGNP
Sequence of recombinant human α-IDUA (rh-α-IDUA, Aldurazyme®) (P35475 26-653): as above
Sequence of rh-α-IDUA in GM02846 fibroblasts (P35475 26-653): as above

Molecule: NCC[C@@H]1O[C@@H](C(=O)O)[C@@H](O)[C@H](O)[C@H]1O [Compound 12]
Ki ([1]; against rh-α-IDUA): 4 µM
IC50 [1]: 6.7 µM
reduction of HS versus rh-α-IDUA alone [2]: significant reduction of HS
enhancement of IDUA activity versus rh-α-IDUA alone ([3]; 1 day, 1-day wash-out): 1.4 fold
IDUA activity with combined treatment versus rh-α-IDUA alone [3, 7]: three
IDUA activity, dose-dependence of co-treatment versus rh-α-IDUA alone ([3]; rh-α-IDUA 1 or 0.1 nM): enhanced by the 12/rh-α-IDUA co-treatment in a dose-dependent manner
rh-α-IDUA activity on co-treatment [4]: dose-dependently enhanced
reduction of accumulated HS versus rh-α-IDUA alone [5]: statistically significantly improved reduction
time course of enhancement of IDUA activity [6]: could be maintained

Molecule: NCC[C@@H]1N[C@@H](C(=O)O)[C@@H](O)[C@H](O)[C@H]1O [Compound 23]
IC50 (μM), NI = no inhibition at 250 μM ([1]; 250 μM compound, rh-α-IDUA): NI^a (NI refers to less than 10% inhibition at 250 μM.)

B1: rh-α-IDUA: recombinant human α-iduronidase, enzyme replacement protein (Aldurazyme®) (protein, UniProt P35475 28-653, looked up)
Alpha-L-iduronidase: APHLVHVDAARALWPLRRFWRSTGFCPPLPHSQADQYVLSWDQQLNLAYVGAVPHRGIKQVRTHWLLELVTTRGSTGRGLSYNFTHLDGYLDLLRENQLLPGFELMGSASGHFTDFEDKQQVFEWKDLVSSLARRYIGRYGLAHVSKWNFETWNEPDHHDFDNVSMTMQGFLNYYDACSEGLRAASPALRLGGPGDSFHTPPRSPLSWGLLRHCHDGTNFFTGEAGVRLDYISLHRKGARSSISILEQEKVVAQQIRQLFPKFADTPIYNDEADPLVGWSLPQPWRADVTYAAMVVKVIAQHQNLLLANTTSAFPYALLSNDNAFLSYHPHPFAQRTLTARFQVNNTRPPHVQLLRKPVLTAMGLLALLDEEQLWAEVSQAGTVLDSNHTVGVLASAHRPQGPADAWRAAVLIYASDDTRAHPNRSVAVTLRLRGVPPGPGLVYVTRYLDNGLCSPDGEWRRLGRPVFPTAEQFRRMRAAEDPVAAAPRPLPAGGRLTLRPALRLPSLLLVHVCARPEKPPGQVTRLRALPLTQGQLVLVWSDEHVGSKCLWTYEIQFSQDGKAYTPVSRKPSTFNLFVFSPDTGAVSGSYRVRALDYWARPGPFSDPVPYLEVPVPRGPPSPGNP
IDUA activity after treatment with rh-α-IDUA alone ([3]; rh-α-IDUA 0.1 nM, 1 day, 1-day wash-out): dramatically increased

Continued, values first:

IC50 [1]: 5.4 ± 0.5 µM
change of IDUA activity on co-treatment versus rh-α-IDUA alone ([3]; 1 day, 1-day wash-out): barely improved
IDUA activity on co-treatment at 500 μM [3, 7]: suppressed
Molecule: O=C(Cc1ccc(OP(=O)(O)O)cc1)NCC[C@@H]1O[C@@H](C(=O)O)[C@@H](O)[C@H](O)[C@H]1O [Compound 27a]

IC50 [1]: 4 ± 0.5 µM
enhancement of IDUA activity versus rh-α-IDUA alone ([3]; 1 day, 1-day wash-out): 1.6 fold
enhancement of IDUA activity at 500 μM [3, 7]: 1.7 fold
Molecule: O=C(Cc1cccc(OP(=O)(O)O)c1)NCC[C@@H]1O[C@@H](C(=O)O)[C@@H](O)[C@H](O)[C@H]1O [Compound 27b]

IC50 [1]: 1 µM
change of IDUA activity on co-treatment versus rh-α-IDUA alone ([3]; 1 day, 1-day wash-out): moderate reduction of IDUA activity
Molecule: O=C(Cc1ccccc1OP(=O)(O)O)NCC[C@@H]1O[C@@H](C(=O)O)[C@@H](O)[C@H](O)[C@H]1O [Compound 27c]
